The test system of one data set is Eimeria necatrix. Put plainly: Anticoccidial activity which controlled infection by Eimeria necatrix in Leghorn cockerels; MEC means minimum effective concentration in parts per million. It counts as functional. Particulars: read-out: MEC.
As for `CS(=O)(=O)c1ccc(C(=O)c2ccc(-n3ncc(=O)[nH]c3=O)cc2Cl)cc1`, the minimal effective concentration was more than 15 µg/mL.

Test system in the next data set: not listed separately
The data set is described as follows: Apparent pKa value was measured in 1:1 DMF/H2O. The data set is classed as physicochemical.
Conditions: not given
Take `Cc1cc(-n2ncc(=O)[nH]c2=O)ccc1C(O)c1ccccc1` (stereo not given): the pH1/2 is 7.37.
Still for that read-out and setting: the figure for `Cc1cc(-n2ncc(=O)[nH]c2=O)ccc1C(=O)c1ccccc1` is 7.02.

The next data set deals with Eimeria acervulina. Put plainly: Anticoccidial activity which controlled infection by Eimeria acervulina in Leghorn cockerels. Conditions: read-out: MEC.
On to `CSc1ccc(C(=O)c2ccc(-n3ncc(=O)[nH]c3=O)cc2Cl)cc1`, for which the minimal effective concentration was more than 30 µg/mL.

Test system in a further data set: not listed separately
The data set is described as follows: Apparent pKa value was measured in 2:1 DMF/H2O. It counts as physicochemical.
Conditions: not given
Regarding `Cc1cc(-n2ncc(=O)[nH]c2=O)ccc1C(=O)c1ccc(Cl)cc1`, the pH1/2 stood at 7.6.
Same read-out and setting: the figure for `CC(=O)c1ccc(-n2ncc(=O)[nH]c2=O)cc1` is 6.53; for `O=C(c1ccccc1)c1ccc(-n2ncc(=O)[nH]c2=O)cc1` it is 7.79; for `O=C(c1ccc(Cl)cc1)c1ccc(-n2ncc(=O)[nH]c2=O)cc1Cl` it is 7.16.
Same read-out and setting: the figure for `O=C(c1ccccc1)c1ccc(-n2ncc(=O)[nH]c2=O)cc1Cl` is 7.04; for `Cc1cc(C)c(C(=O)c2ccc(-n3ncc(=O)[nH]c3=O)cc2)c(C)c1` it is 7.16; for `Cc1cc(-n2ncc(=O)[nH]c2=O)ccc1C(=O)c1ccc(C#N)cc1` it is 7.08.
Still for that read-out and setting: the figure for `Cc1cc(-n2ncc(=O)[nH]c2=O)ccc1C(=O)c1ccccc1Cl` is 7.08.

Test system in a further data set: not listed separately
The data set is described as follows: Plasma half-life of the compound. The data set is classed as ADME.
Conditions: not given
The molecule `Cc1cc(-n2ncc(=O)[nH]c2=O)ccc1C(=O)c1ccc(Cl)cc1` gave a half-life of 13 h.
Molecule `O=C(c1ccc(Cl)cc1)c1ccc(-n2ncc(=O)[nH]c2=O)cc1Cl` showed a half-life of 20 h.
With `Cc1cc(-n2ncc(=O)[nH]c2=O)cc(Cl)c1C(=O)c1ccc(Cl)cc1`, the half-life was 21 h.
The molecule `Cc1cc(-n2ncc(=O)[nH]c2=O)ccc1C(=O)c1ccc(Cl)cc1Cl` gave a half-life of 45 h.

A further data set relates to Eimeria tenella. The data set is described as follows: Anticoccidial activity which controlled infection by Eimeria tenella in Leghorn cockerels. It counts as functional. Conditions: read-out: MEC.
As for `Cc1cc(-n2ncc(=O)[nH]c2=O)cc(C)c1C(O)c1ccc(Cl)cc1` (stereo not given), the minimal effective concentration was 30 µg/mL.
Same read-out and setting: under `Cc1cc(Cl)ccc1C(=O)c1ccc(-n2ncc(=O)[nH]c2=O)cc1C` stands 15 µg/mL; under `Cc1cc(-n2ncc(=O)[nH]c2=O)ccc1C(=O)c1ccc(Cl)cc1`, 8 µg/mL; under `O=C(c1ccc(Cl)cc1Cl)c1ccc(-n2ncc(=O)[nH]c2=O)cc1Cl`, 4 µg/mL.
As to `CC(=O)c1ccc(-n2ncc(=O)[nH]c2=O)cc1`, the minimal effective concentration was more than 250 µg/mL.
Same read-out and setting: under `O=C(c1ccccc1)c1ccc(-n2ncc(=O)[nH]c2=O)cc1` stands 60 µg/mL; under `COc1ccc(C(=O)c2ccc(-n3ncc(=O)[nH]c3=O)cc2)cc1`, 125 µg/mL; under `Cc1cc(-n2ncc(=O)[nH]c2=O)ccc1C(O)c1ccc(Cl)cc1` (stereo not given), 15 µg/mL.
On the same count and under the same terms, under `O=C(c1ccc(-n2ncc(=O)[nH]c2=O)cc1)c1cccs1` stands more than 250 µg/mL; under `O=C(c1ccc(Cl)cc1)c1ccc(-n2ncc(=O)[nH]c2=O)cc1Cl`, 2 µg/mL; under `Cc1cc(-n2ncc(=O)[nH]c2=O)ccc1Cc1ccccc1`, 30 µg/mL.
The same measure, in the same setting: the figure for `O=c1cnn(-c2ccc(C(O)c3ccc(Cl)cc3)c(Cl)c2)c(=O)[nH]1` (stereo not given) is 2 µg/mL; for `Cc1cc(-n2ncc(=O)[nH]c2=O)cc(Cl)c1C(=O)c1ccc(Cl)cc1` it is 8 µg/mL.
Consider `O=C(c1ccccc1)c1cccc(-n2ncc(=O)[nH]c2=O)c1`, for which the minimal effective concentration is more than 250 µg/mL.
Same read-out and setting: under `Cc1cc(-n2ncc(=O)[nH]c2=O)cc(C)c1C(=O)c1ccc(Cl)cc1` stands 15 µg/mL; under `CC(=O)c1ccc(-n2ncc(=O)[nH]c2=O)cc1Cl`, 125 µg/mL.
Regarding `O=C(c1ccccc1)c1ccc(-n2ncc(=O)[nH]c2=O)cc1Cl`, the minimal effective concentration worked out at 15 µg/mL.
In the case of `Cc1cc(C)c(C(=O)c2ccc(-n3ncc(=O)[nH]c3=O)cc2)c(C)c1`, the minimal effective concentration is more than 250 µg/mL.
The same measure, in the same setting: the figure for `O=C(c1ccccc1)c1cc(-n2ncc(=O)[nH]c2=O)ccc1Cl` is more than 250 µg/mL; for `Cc1cc(-n2ncc(=O)[nH]c2=O)ccc1C(O)c1ccccc1` (stereo not given) it is 30 µg/mL; for `O=C(c1ccc(Cl)cc1)c1ccc(-n2ncc(=O)[nH]c2=O)cc1` it is 30 µg/mL.
Same read-out and setting: the figure for `O=c1cnn(-c2ccc(-c3ccc4oc5ccc(Cl)cc5c(=O)c4c3)cc2)c(=O)[nH]1` is more than 250 µg/mL; for `CCCC(=O)c1ccc(-n2ncc(=O)[nH]c2=O)cc1` it is more than 60 µg/mL.
`Cc1cc(-n2ncc(=O)[nH]c2=O)ccc1C(=O)c1ccc(C#N)cc1`: the minimal effective concentration was 125 µg/mL.
On the same count and under the same terms, the figure for `Cc1cc(-n2ncc(=O)[nH]c2=O)ccc1C(=O)c1ccccc1Cl` is 60 µg/mL; for `Cc1cc(-n2ncc(=O)[nH]c2=O)ccc1C(=O)c1ccc(Cl)cc1Cl` it is 4 µg/mL; for `Cc1cc(Br)ccc1C(=O)c1ccc(-n2ncc(=O)[nH]c2=O)cc1Cl` it is 8 µg/mL.
For `Cc1ccc(C(=O)c2ccc(-n3ncc(=O)[nH]c3=O)cc2)cc1`, the minimal effective concentration is more than 250 µg/mL.
Consider `Cc1cc(-n2ncc(=O)[nH]c2=O)ccc1C(=O)c1ccccc1`, for which the minimal effective concentration stood at 8 µg/mL.

The half-life is the time in which the quantity being followed falls by half. Low values mean fast loss, high ones slow loss.

The values are drawn from ChEMBL document CHEMBL1122449, “Anticoccidial derivatives of 6-azauracil. 5. Potentiation by benzophenone side chains” (J Med Chem, 1983).
